The target of one test is T1, ALDH1A1 (Homo sapiens, UniProt P00352).
T1 construct: His-tag; made in house; host or cells: E. coli Rosetta (DE3)
T1 sequence (P00352 1-501): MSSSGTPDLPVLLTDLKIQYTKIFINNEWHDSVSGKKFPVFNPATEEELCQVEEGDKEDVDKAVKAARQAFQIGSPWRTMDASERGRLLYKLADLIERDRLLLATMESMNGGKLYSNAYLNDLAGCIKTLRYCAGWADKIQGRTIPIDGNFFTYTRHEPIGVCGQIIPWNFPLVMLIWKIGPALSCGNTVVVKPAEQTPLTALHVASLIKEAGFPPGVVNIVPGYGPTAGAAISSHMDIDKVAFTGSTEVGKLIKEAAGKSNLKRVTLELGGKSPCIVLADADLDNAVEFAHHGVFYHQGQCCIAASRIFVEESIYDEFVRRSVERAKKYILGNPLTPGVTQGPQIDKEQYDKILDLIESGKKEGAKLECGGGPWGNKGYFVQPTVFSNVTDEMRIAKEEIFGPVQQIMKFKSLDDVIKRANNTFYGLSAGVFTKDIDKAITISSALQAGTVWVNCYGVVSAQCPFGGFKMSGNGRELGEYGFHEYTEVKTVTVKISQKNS
Description: Selectivity biochemical assay, NAD(P)H-Glo Detection System. From the text:
(§1) Cloning: Open reading frames corresponding to the protein coding sequences of full length human ALDH1A1 (Uniprot ID P00352), ALDH1A2 (094788) and ALDH1A3 (P47895) were polymerase chain reaction (PCR) amplified from human cDNA and inserted into the multi-cloning sites of the commercially available (Novagen) E. coli expression vectors pET47b (ALDH1A1, EcoRI restriction site; ALDH1A2, BamHI and EcoRI sites) or pET28a (ALDH1A3, NdeI and BamHI sites), using standard molecular genetic techniques. Recombinant DNA products were sequence verified prior to use in expression studies.
(§2) Expression: Expression constructs were transformed into the E. coli strain Rosetta (DE3) (Merck) and individual colonies used to inoculate 10 mL lysogen broth (LB) medium supplemented with kanamycin and chloramphenicol at 50 μg/mL and 34 μg/mL, respectively. Cultures were grown to saturation overnight at 37° C., prior to being used to sub-inoculate fresh 1 L LB medium cultures (plus antibiotics, as before). 1 L cultures were grown at 37° C., 200 rpm, throughout the day until the optical density at 600 nm (OD600) reached ˜0.8, at which point growth temperature was reduced to 18° C. and 1 mM isopropyl β-d-1-thiogalacto pyranoside (IPTG) added to induce protein expression.
(§3) Cultures were left overnight (at least 16 h) under these conditions and the following day harvested by centrifugation (4000 G, 10 minutes). Culture supernatant was discarded and cell pellets stored at −80° C. until further processing.
(§4) Purification: Cell pellets were thawed on ice, re-suspended in Ni Affinity Buffer A (20 mM HEPES pH 7.5, 300 mM NaCl, 20 mM imidazole, 1 mM tris(2-carboxyethyl)phosphine (TCEP)) with protease inhibitors (cOmplete Ultra protease inhibitor, Roche), and lysed by sonication. Lysates were clarified by centrifugation at 18,000 G, 4° C., for 40 minutes, and loaded directly onto a pre-equilibrated (Buffer A) 5 mL HisTrap Fast Flow column (GE Healthcare) by way of an AKTA Fast Protein Liquid Chromatography (FPLC) system. The column was sequentially treated with 6 column volumes (CV) 100% Buffer A, 8 CV of 90% Buffer A:10% Buffer B (20 mM 4-(2-hydroxyethyl)-1-piperazineethanesulfonic acid (HEPES) pH 7.5, 300 mM NaCl, 500 mM imidazole, 1 mM TCEP) and finally a linear gradient from 10-70% Buffer B over 8 CV to elute recombinant His-tagged protein. Relevant fractions (as measured by 280 nm absorbance) collected during elution were pooled and subjected to further purification by size exclusion chromatography (Superdex 200 26/600, GE Healthcare, running buffer 20 mM 2-(carbamoylmethylamino)ethanesulfonic acid (ACES) pH 7.5, 1 mM TCEP). Relevant fractions from this step were pooled, aliquoted, and stored at −80° C. until required for compound profiling assays.
(§5) Materials: ALDH2 was purchased from Abnova. Tris(hydroxymethyl)aminomethane (Tris) was purchased from MP Biomedicals. TCEP, ethylenediaminetetraacetic acid (EDTA), propionaldehyde, DMSO and Tween-20 were purchased from Sigma. Nicotinamide adenine dinucleotide (NAD) was obtained from Abcam. The NAD(P)H-Glo™ Detection System was purchased from Promega. White, non-binding surface, 384 well plates were supplied by Corning (#3574).
(§6) Method: Inhibition of ALDH1A3 was assessed using the NAD(P)H-Glo™ Detection System (Cat. No. G9062) from Promega. This assay detects the production of NADH from NAD by ALDH1A3 via the coupled enzymatic conversion of a proluciferin reductase substrate to generate a luminescent signal. Inhibition of ALDH1A3 by small molecule inhibitors will result in reduction or abrogation of luminescence signal increase above background. Inhibition of ALDH1A1, ALDH1A2 and ALDH2 (selectivity assays) were assessed using the same assay.
(§7) Compounds were dosed into Corning 384 well assay plates using an Echo acoustic dispenser to give 10 point curves in a 3-fold dilution series. Compounds were dispensed from a 20 mM DMSO stock and initially screened at a top concentration of 20 μM (ALDH1A3) or 250 μM (ALDH1A1, ALDH1A2 & ALDH2). […]

A further test deals with T2, ALDH1A2 (Homo sapiens, UniProt O94788).
T2 construct: His-tag; made in house; host or cells: E. coli Rosetta (DE3)
T2 sequence (O94788 1-518): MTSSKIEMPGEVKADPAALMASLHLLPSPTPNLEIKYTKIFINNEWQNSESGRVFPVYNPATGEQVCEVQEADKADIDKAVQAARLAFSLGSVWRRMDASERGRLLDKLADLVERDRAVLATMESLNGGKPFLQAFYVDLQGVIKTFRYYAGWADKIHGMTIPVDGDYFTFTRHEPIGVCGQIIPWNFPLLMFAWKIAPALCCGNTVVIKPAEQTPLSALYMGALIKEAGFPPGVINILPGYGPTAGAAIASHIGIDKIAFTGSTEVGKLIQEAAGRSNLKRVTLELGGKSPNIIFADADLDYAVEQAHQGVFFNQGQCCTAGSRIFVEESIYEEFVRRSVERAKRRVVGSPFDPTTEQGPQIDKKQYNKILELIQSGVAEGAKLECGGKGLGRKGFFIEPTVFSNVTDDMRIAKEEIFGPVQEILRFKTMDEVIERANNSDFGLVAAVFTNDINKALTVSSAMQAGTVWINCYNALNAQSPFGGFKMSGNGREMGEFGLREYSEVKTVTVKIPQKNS
The description is as above.
Source text: as §1, §2, §3, §4, §5, §6, §7

These results are taken from patent publication US20240174634A1, “Aldehyde Dehydrogenase Inhibitors and Their Therapeutic Use” (priority 2020, published 2024).

pIC50: −log10 of the molar value. A value given as a limit tells only on which side of the number the result lay.

For `O=C1CSc2cc(OCCN3CCCC3c3cccnc3)ccc2N1` (centres unmarked) [ALDHI-2028, 7-[2-[2-(3-pyridyl)pyrrolidin-1-yl]ethoxy]-4H-1,4-benzothiazin-3-one], the pIC50 against ALDH1A1 and on ALDH1A2 was at most 4.00 each time.

Take `O=C1CCc2cc(OCCN(CCO)Cc3cccc(F)c3)ccc2N1` [ALDHI-3002, 6-[2-[(3-fluorophenyl)methyl-(2-hydroxyethyl)amino]ethoxy]-3,4-dihydro-1H-quinolin-2-one]: the pIC50 (in general, −log10 of the IC50, conventionally taken in molar units) against ALDH1A1 was at most 4.00; against ALDH1A2, 6.00 to 7.00.

On to `C[C@H](c1ccccc1)N(CCO)CCOc1ccc2c(c1)CCC(=O)N2` [ALDHI-3006, 6-[2-[2-hydroxyethyl-[(1R)-1-phenylethyl]amino]ethoxy]-3,4-dihydro-1H-quinolin-2-one], for which the pIC50 against ALDH1A1 is 4.00 to 5.00; on ALDH1A2, 5.00 to 6.00.

For `O=C1CCc2cc(NC(=O)c3cncnc3-c3cccc(F)c3)ccc2N1` [ALDHI-1018, 4-(3-fluorophenyl)-N-(2-oxo-3,4-dihydro-1H-quinolin-6-yl)pyrimidine-5-carboxamide], the negative logarithm of the IC50 (pIC50) against ALDH1A1 was at most 4.00.

As to `O=c1ccc2cc(OCCN3CCCC3c3cccc(F)c3)ccc2[nH]1` (centres unmarked) [ALDHI-2022, 6-[2-[2-(3-fluorophenyl)pyrrolidin-1-yl]ethoxy]-1H-quinolin-2-one], the pIC50 against ALDH1A1 is at most 4.00; against ALDH1A2, 5.00 to 6.00.

Take `CN(CCOc1ccc2c(c1)CCC(=O)N2)Cc1cccnc1` [ALDHI-3010, 6-[2-[methyl(3-pyridylmethyl)amino]ethoxy]-3,4-dihydro-1H-quinolin-2-one]: the pIC50 against ALDH1A1 and at ALDH1A2 was 4.00 to 5.00 in each case.

On to `O=C1CCc2cc(OCCN3CCCC3c3ccccc3)ccc2N1` (centres unmarked) [ALDHI-2019, 6-[2-(2-phenylpyrrolidin-1-yl)ethoxy]-3,4-dihydro-1H-quinolin-2-one], for which the pIC50 against ALDH1A1 was at most 4.00; against ALDH1A2, 6.00 to 7.00.

`O=C1CCc2cc(OCCN3CCCC3c3ccc(F)cc3)ccc2N1` (centres unmarked) [ALDHI-2003, 6-[2-[2-(4-fluorophenyl)pyrrolidin-1-yl]ethoxy]-3,4-dihydro-1H-quinolin-2-one]: the negative logarithm of the IC50 (pIC50) was at most 4.00 against ALDH1A1 and 5.00 to 6.00 against ALDH1A2.

Turning to `O=C1CCc2cc(OCCN3CCCC3c3ccsc3)ccc2N1` (centres unmarked) [ALDHI-2014, 6-[2-[2-(3-thienyl)pyrrolidin-1-yl]ethoxy]-3,4-dihydro-1H-quinolin-2-one], the pIC50 against ALDH1A1 and on ALDH1A2 was at most 4.00 throughout.

Turning to `Cc1ccccc1C1CCCN1CCOc1ccc2c(c1)CCC(=O)N2` (centres unmarked) [ALDHI-2012, 6-[2-[2-(o-tolyl)pyrrolidin-1-yl]ethoxy]-3,4-dihydro-1H-quinolin-2-one], the pIC50 at ALDH1A1 and at ALDH1A2 was at most 4.00 in each case.

Turning to `CCN(CC)CCN(CCOc1ccc2c(c1)CCC(=O)N2)Cc1ccccc1` [ALDHI-3004, 6-[2-[benzyl-[2-(diethylamino)ethyl]amino]ethoxy]-3,4-dihydro-1H-quinolin-2-one], the figures for the pIC50 against ALDH1A1 and on ALDH1A2 were at most 4.00 and 5.00 to 6.00, respectively.

In the case of `O=C1CCc2cc(OCCn3ccnc3-c3ccccc3)ccc2N1` [ALDHI-2041, 6-[2-(2-phenylimidazol-1-yl)ethoxy]-3,4-dihydro-1H-quinolin-2-one], the pIC50 at ALDH1A1 is at most 4.00; at ALDH1A2, 5.00 to 6.00.

On to `O=C1CCc2cc(OCCN3CCCCC3c3cccc(F)c3)ccc2N1` (centres unmarked) [ALDHI-2038, 6-[2-[2-(3-fluorophenyl)-1-piperidyl]ethoxy]-3,4-dihydro-1H-quinolin-2-one], for which the negative logarithm of the IC50 (pIC50) against ALDH1A1 is 4.00 to 5.00; against ALDH1A2 it was 5.00 to 6.00.

Consider `Cc1cccc(C2CCCN2CCOc2ccc3c(c2)CCC(=O)N3)c1` (centres unmarked) [ALDHI-2011, 6-[2-[2-(m-tolyl)pyrrolidin-1-yl]ethoxy]-3,4-dihydro-1H-quinolin-2-one], for which the pIC50 against ALDH1A1 is at most 4.00; against ALDH1A2 it was 4.00 to 5.00.

Consider `Cc1ccc(C2CCCN2CCOc2ccc3c(c2)CCC(=O)N3)cc1` (centres unmarked) [ALDHI-2010, 6-[2-[2-(p-tolyl)pyrrolidin-1-yl]ethoxy]-3,4-dihydro-1H-quinolin-2-one], for which the pIC50 against ALDH1A1 and against ALDH1A2 was at most 4.00 throughout.

As for `O=C1CCc2cc(OCCN3CCC3c3cccc(F)c3)ccc2N1` (centres unmarked) [ALDHI-2021, 6-[2-[2-(3-fluorophenyl)azetidin-1-yl]ethoxy]-3,4-dihydro-1H-quinolin-2-one], the negative-log IC50 (pIC50) was at most 4.00 on ALDH1A1 and 5.00 to 6.00 on ALDH1A2.

For `O=C1CCc2cc(OCCN3CCCC3c3ccccn3)ccc2N1` (centres unmarked) [ALDHI-2006, 6-[2-[2-(2-pyridyl)pyrrolidin-1-yl]ethoxy]-3,4-dihydro-1H-quinolin-2-one], the pIC50 was at most 4.00 on ALDH1A1 and 5.00 to 6.00 against ALDH1A2.

Turning to `CN(CCOc1ccc2c(c1)CCC(=O)N2)C(CO)c1cccc(F)c1` (centres unmarked) [ALDHI-3003, 6-[2-[[1-(3-fluorophenyl)-2-hydroxy-ethyl]-methyl-amino]ethoxy]-3,4-dihydro-1H-quinolin-2-one], the negative-log IC50 (pIC50) against ALDH1A1 was at most 4.00; at ALDH1A2 it was 5.00 to 6.00.

`CN(CCOc1ccc2c(c1)CCC(=O)N2)Cc1cccc(F)c1` [ALDHI-3001, 6-[2-[(3-fluorophenyl)methyl-methyl-amino]ethoxy]-3,4-dihydro-1H-quinolin-2-one]: the pIC50 was at most 4.00 at ALDH1A1 and 5.00 to 6.00 at ALDH1A2.

On to `O=C1CCc2cc(OCCN3CCOCC3c3cccc(F)c3)ccc2N1` (centres unmarked) [ALDHI-2031, 6-[2-[3-(3-fluorophenyl)morpholin-4-yl]ethoxy]-3,4-dihydro-1H-quinolin-2-one], for which the pIC50 is at most 4.00 at ALDH1A1 and 6.00 to 7.00 against ALDH1A2.

In the case of `O=C1CCc2cc(NC(=O)c3scnc3-c3ccccc3Cl)ccc2N1` [ALDHI-1012, 4-(2-chlorophenyl)-N-(2-oxo-3,4-dihydro-1H-quinolin-6-yl)thiazole-5-carboxamide], at ALDH1A1, the pIC50 is 4.00 to 5.00.

At ALDH1A1, `O=C1CCc2cc(NC(=O)c3c[nH]nc3-c3cccc(F)c3)ccc2N1` [ALDHI-1006, 3-(3-fluorophenyl)-N-(2-oxo-1,2,3,4-tetrahydroquinolin-6-yl)-1H-pyrazole-4-carboxamide] had a pIC50 of at most 4.00.
